Like-named read-outs stand apart in the source and are kept apart here. Each block holds one compound with its values, some of them ahead of it.
Tests used:
[1] = cited from earlier work
[2] = Type II diabetic obese patient switched from rosiglitazone to 6ECDCA plus rosiglitazone; type: in vivo, human; details: rosiglitazone 8 mg daily 4 weeks then 4 mg daily 6 weeks by mouth
Method: The patient is started on a combination of 6ECDCA (150 mg) and rosiglitizone (2 mg) daily by mouth.

[3] = tested on: primary cultures of rat HSCs; assay: PPARγ expression in primary cultures of rat HSCs with FXR ligands (qRT-PCR, Western blot); type: cell-based
Method: However, whether or not FXR interacts with PPARγ, has so far been unknown. In order to investigate if FXR interacts with PPARγ, in vitro studies were performed on primary cultures of rat HSCs and HSC-T6 (i.e., a rat immortalised HSCs line). Primary rat HSCs were isolated from control and cirrhotic rats according to techniques known in the art. […] Cells were cultured at 37° C. in an atmosphere of 5% CO2 in Dulbecco's modified minimal essential medium (Gibco BRL Life Technologies, Rockville, Md.) containing 10% fetal calf serum (FCS), 2 mM L-glutamine, and 5,000 IU/ml penicillin/[…] streptomycin. […] HSCs were incubated with or without 6-ECDCA, 1 μM, for 24 hours at 37° C. in DMEM. […] The proteins were then transferred to nitrocellulose membranes (Biorad, Hercules, Calif.) and probed with primary antibodies to FXR and PPARγ (Santa Cruz Biotechnology, Santa Cruz, Calif.).
PPARγ expression normally decreases during HSC trans-differentiation. […] To further investigate whether ligands of FXR and PPARγ might cooperate in repressing α1 (1) collagen gene expression, HSC-T6 were exposed to effective concentrations of the two ligands.

[4] = tested on: liver fibrosis; assay: Gene expression in three rat models of liver fibrosis (porcine serum, BDL, CCl4) treated with FXR ligand; type: in vivo; details: rats, 3 mg/kg
Method: In order to further investigate whether in vivo administration of FXR ligands would modulate the expression of PPARγ, three different models of liver fibrosis were used, i.e., porcine serum administration, bile duct ligation (BDL), and CCL4 intoxication. Male Wistar rats (200-250 g) were obtained from Charles River Breeding Laboratories (Monza, Italy) and maintained on standard laboratory rat chow on a 12 hour light/dark cycle. […] (2004) Gastroenterology 14:1444-1356). […] At the end of the study, rats were sacrificed under anaesthesia with sodium pentobarbital (50 mg/kg, i.p.) and terminally bled via cardiac puncture. The liver was removed for examination and blood samples were taken. In the second model, hepatic fibrosis was induced by bile duct ligation (BDL) of 8-9 weeks old male Wistar rats (see Fiorucci et al. (2004) Gastroenterology 14:1444-1356 and Fiorucci et al. (2004) Hepatology 39:365-75). Sham operated rats (n=6) received the same laparoscopic procedure, except that the bile duct was manipulated, but not ligated and sectioned. A total of 24 animals were operated. […] Animals were then treated for 14 days. […] Control rats were injected i.p. with 100 μl/100 g body weight of paraffin oil alone.

[5] = tested on: liver fibrosis induced by porcine serum; assay: Liver fibrosis induced by 8-week porcine serum administration to rats: 6-ECDCA, rosiglitazone and combination; type: in vivo, rat; details: for ALP / ALT / Bilirubin / Liver/b.w.: porcine serum rats, 8 weeks, mean ± SE
Method: To investigate whether 6-ECDCA was effective in regulating PPARγ expression, porcine serum-administered rats (6-8 each group) were randomized to receive 1 and 3 mg/kg 6-ECDCA via gavage 5 times a week. Control rats were administered 3% carboxy-methyl cellulose (CMC) by gavage. At the end of the study, rats were sacrificed under anaesthesia with sodium pentobarbital (50 mg/kg, i.p.) and terminally bled via cardiac puncture. The liver was removed for examination and blood samples were taken.
Groups and duration of treatment are described in Table 1 below. Animals were followed for 8 weeks.
Collagen surface density was quantified using a computerized image analysis system (Image Acquisition System Ver. 005, Delta Sistemi, Rome, Italy) (see Fiorucci et al., supra). Hepatic and urinary content of hydroxyproline were determined by HPLC (LC Varian Prostar HPLC, Varian, Rome, Italy) as described in Fiorucci et al. (supra). The ANOVA followed by Dunnett or Bonferroni correction for multiple comparison were applied when appropriate during statistical analysis. EC50 were calculated using Prism III (Graphpad Software. Inc., San Diego, Calif.).

Structure (SMILES): CCc1ccc(CCOc2ccc(CC3SC(=O)NC3=O)cc2)nc1 (centres unmarked) [pioglitazone]
combined incidence of edema ([1]; 15 or 30 mg/day in combination with insulin (Rubin et al. 1999)): 15.3%

edema [2]: signs of increasing peripheral edema
weight gained since initiating TZD therapy [2]: 6 kg
Structure (SMILES): CN(CCOc1ccc(CC2SC(=O)NC2=O)cc1)c1ccccn1 (centres unmarked) [rosiglitazone]
incidence of edema ([1]; 4 mg/day in combination with insulin (Raskin et al. 2001)): 13.1%
incidence of edema ([1]; 8 mg/day in combination with insulin (Raskin et al. 2001)): about 16.2%

ALP ([5]; oral 1 mg/kg (each drug)): 26.6 ± 2.5 U/dl
Bilirubin ([5]; oral 1 mg/kg (each drug)): 0.3 ± 0.01 mg/dL
ALP ([5]; oral 3 mg/kg (each drug)): 21.8 ± 5.2 U/dl
Bilirubin ([5]; oral 3 mg/kg (each drug)): 0.2 ± 0.01 mg/dL
Structure (SMILES): CC[C@H]1[C@@H](O)[C@@H]2[C@H](CC[C@]3(C)[C@@H]([C@H](C)CCC(=O)O)CC[C@@H]23)[C@@]2(C)CC[C@@H](O)C[C@@H]12 [6-ECDCA]
increase in PPARγ mRNA and protein ([3]; primary HSCs grown seven days, 1 μM): 40 fold
increase of FXR mRNA [4]: 1.8 fold
increase of SHP mRNA [4]: 4 fold
expression of selected pro-fibrogenetic markers (α-SMA, fibronectin, TGFP1) ([5]; 1 mg/kg): reduced
histological score and liver hydroxyproline content ([5]; 1 mg/kg, in comparison to porcine serum alone): slightly reduced
protection against development of liver fibrosis ([5]; 3 mg/kg): effectively protected
increase of liver PPARγ mRNA ([5]; 3 mg/kg alone): 3-4 fold
increase of hepatic expression of UCP-2 ([5]; 3 mg/kg, P<0.05 versus control and porcine serum alone): 2-4 fold
liver function as measured by plasma ALT, alkaline phosphatase and bilirubin ([5]; 1 and 3 mg/kg, P>0.05 versus control and porcine serum-treated rats): did not affect liver function
ALT ([5]; oral 1 mg/kg (each drug)): 47.4 ± 2.4 U/L
Liver/b.w. ([5]; oral 1 mg/kg (each drug)): 3.8 ± 0.3%
ALT ([5]; oral 3 mg/kg (each drug)): 41.9 ± 5.3 U/L
Liver/b.w. ([5]; oral 3 mg/kg (each drug)): 2.9 ± 0.2%

Structure (SMILES): CC(C)c1onc(-c2c(Cl)cccc2Cl)c1COc1ccc(/C=C/c2cccc(C(=O)O)c2)c(Cl)c1 [GW4064, reference compound]
downregulation of PPAR-γ caused by HSCs activation ([3]; primary HSCs): prevented the downregulation

Source: patent US20060252670A1, “Method of reducing drug-induced adverse side effects in a patient” (Intercept Pharmaceuticals Inc., priority 2004, published 2006)
